The text below walks through data of article PMC10848080 (CNS Neuroscience & Therapeutics, 2023).

Series [1] concerns E. faecalis. The series is described as follows: qPCR of E. faecalis in feces of E. faecalis-transplanted rats. In kind it is in vivo, rat. The conditions noted are these: 1 week of administration, combination vs L-dopa alone. As for the experimental part:
(§1) Fecal microbial genomic DNA was extracted using the TIANamp Stool DNA Kit (TIANGEN). Plasmids containing the target sequences of E. faecalis 16 S rRNA and TDC were prepared (Figure S1A,B). Then, 10‐fold serial dilutions of plasmid were used as the templates to make the standard curves for absolute quantification. Quantitative PCR (qPCR) experiments were performed on 40 ng DNA in 20 μL reactions, following the amplification program: initial denaturation at 95°C for 15 min, 45 cycles of 95°C for 10 s, 58°C for 31 s, 72°C for 30 s, ended with a final extension at 72°C for 10 min. The absolute E. faecalis 16 S rRNA gene and TDC gene copies in fecal DNA samples were calculated based on the standard curves.
On the technique in general: Quantitative PCR measures a nucleic acid by following its amplification.

Series [2] deals with E. faecalis. The series is described as follows: qPCR quantification of E. faecalis in feces of 6-OHDA-lesioned rats. Type of series: in vivo, rat. As to conditions: PIP 10 and 20 mg/kg after 3 weeks, dose-dependent, combination vs L-dopa after 6 weeks. Here is the method: (§2) The damage of rat dopaminergic neurons was assessed by apomorphine (APO, Sigma)‐induced rotation tests at the 5th, 8th, and 11th weeks of experiment.[17] […] The dosages of PIP used in the present study were safe for rats.[21] Rats were treated once a day for 6 weeks. The 6‐OHDA group and sham group were treated with the same volume of substrate solution (0.5% CMC‐Na).
as §1

The next series deals with DA in rat striatum. The series is described as follows: Striatal DA content by HPLC-ECD in 6-OHDA-lesioned rats. In kind it is in vivo. As to conditions: 6 weeks, L-dopa vs 6-OHDA, combination vs L-dopa alone in lesioned striatum.
For series [3], the system named is TDC. The series is described as follows: TDC gene expression and specific activity in feces of E. faecalis-transplanted rats. In kind it is in vivo, rat. The conditions noted are these: 1 week of administration, combination vs L-dopa alone. Here is the method: as §1
(§3) The rat feces were weighed and suspended in lysis buffer. After centrifugation at 800 g for 10 min, the supernatants were collected and added with lysozyme. The mixtures were centrifuged at 12,000 g for 20 min, and the supernatants were obtained for protein concentration determination and the detection of TDC level in rat feces using rat TDC ELISA kit (MM‐71824R1, MEIMIAN). The results are expressed as U/mg protein.

The next series relates to 6-OHDA-lesioned rats. The series is described as follows: Open-field test in 6-OHDA-lesioned rats. Type of series: in vivo, rat. The conditions noted are these: L-dopa 60 mg/kg, PIP 20 mg/kg, once a day for 6 weeks. As for the experimental part: Adaptively raised for 1 week, SD rats were randomly divided into two groups: the sham‐operated group (n = 6) and the 6‐OHDA‐lesioned group (n = 36). After deep anesthesia, the rats were stereotaxically injected with 3 μL 6‐OHDA (4 mg/mL in 0.02% ascorbic acid saline; Sigma) into the left striatum following our previously described protocol,[17] and the rats in sham group were injected with 3 μL vehicle (0.02% ascorbic acid saline).
as §2
Open‐field test was conducted on the 2nd day after the rotation test. The movements in 5 min of rats in open‐field apparatus (100 × 100 × 40 cm), including total movement distance (cm) and horizontal velocity (cm/s), were recorded by the TruScan Activity Monitoring System (USA). Abnormal involuntary movements (AIMs) were scored according to the rating system described in Lee's study.[22] […] Then, the dyskinesia behaviors of rats, including axial dystonia, reverse rotation, and limb and masticatory dyskinesia, were evaluated during a 1‐min monitoring period, repeated every 20 min for 2 h. […]

Series [4] deals with TDC. The series is described as follows: qPCR quantification of TDC in feces of 6-OHDA-lesioned rats. Type of series: in vivo, rat. The conditions noted are these: PIP dose-dependent, after 3 weeks, vs 6-OHDA. Here is the method:
as §2, §1

The test system of series [5] is TDC. The series is described as follows: ELISA of TDC specific activity in feces of 6-OHDA-lesioned rats. As to conditions: 6-OHDA-lesioned rats after 6 weeks of administration; combination vs L-dopa alone. In kind it is in vivo, rat. As for the experimental part: as §3
Details of series [6]: method as in PMID 23603295. As to conditions: previous studies; cited from earlier work.
Series [7] has as its target T1, TDC (from E. faecalis NCTC6783) (Enterococcus faecalis, UniProt P0DTQ4).
T1 construct: purchased Aladdin
T1 sequence (P0DTQ4 1-620): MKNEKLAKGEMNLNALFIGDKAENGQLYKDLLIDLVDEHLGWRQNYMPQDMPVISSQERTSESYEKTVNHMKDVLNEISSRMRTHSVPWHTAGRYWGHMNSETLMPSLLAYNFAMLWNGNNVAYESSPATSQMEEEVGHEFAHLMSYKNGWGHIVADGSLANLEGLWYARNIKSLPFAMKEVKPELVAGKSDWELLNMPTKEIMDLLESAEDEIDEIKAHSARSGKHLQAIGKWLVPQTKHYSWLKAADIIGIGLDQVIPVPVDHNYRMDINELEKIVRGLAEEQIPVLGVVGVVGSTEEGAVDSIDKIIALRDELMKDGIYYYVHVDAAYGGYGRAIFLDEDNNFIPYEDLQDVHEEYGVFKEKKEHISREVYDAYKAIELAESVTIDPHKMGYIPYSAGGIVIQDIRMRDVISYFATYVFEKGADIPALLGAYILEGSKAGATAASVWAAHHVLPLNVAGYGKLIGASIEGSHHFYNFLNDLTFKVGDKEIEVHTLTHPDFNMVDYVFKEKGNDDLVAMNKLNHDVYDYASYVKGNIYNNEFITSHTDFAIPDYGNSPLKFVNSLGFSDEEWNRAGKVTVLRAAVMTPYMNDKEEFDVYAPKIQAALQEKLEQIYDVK
The series is described as follows: TDC enzyme assay (DA produced from L-dopa). Type of series: biochemical. The conditions noted are these: 250 μM PIP, L-dopa 0.3 mM, pH 5.5, relative to solvent control. Here is the method: (§4) TDC (from E. faecalis NCTC6783, Aladdin; 0.02 mg/mL) and PLP (2 mM, Sigma) were pre‐incubated with various concentrations (0.01–250 μM) of PIP in 0.2 M sodium acetate buffer (pH = 5.5) at 37°C for 15 min. […] After 20 min of incubation, the reaction was quenched by diluting 1:10 in methanol containing 0.7% perchloric acid.[25] The mixture was centrifuged at 12,000 g (4°C) for 5 min, and the supernatant was collected for the determination of DA by HPLC‐ECD.

The next series deals with E. faecalis ATCC29212. The series is described as follows: L-dopa conversion rate in E. faecalis ATCC29212 culture. As to conditions: 24 h, anaerobic, vs L-dopa alone. In kind it is cell-based, Enterococcus faecalis. As for the experimental part:
(§5) The column was maintained at 40°C.
(§6) The growth control group and negative control group were set. The cultures were incubated at 37°C under an anaerobic environment. The 1 mL of incubation sample and twofold cold acetonitrile were added to terminate the incubation. After centrifugation at 12,000 g for 10 min, the supernatants were collected for HPLC‐FLD analysis.

Series [8] can be described thus: L-dopa conversion rate in rat whole blood and tissue homogenates in vitro. In kind it is in vitro ADME. The conditions noted are these: L-dopa 0.3 mM + PIP 10 or 20 μg/mL, 12 and 24 h, vs L-dopa alone. As for the experimental part: as §5
(§7) The whole blood, colon contents, jejunum, and brain tissues of SD rats (n = 6) were collected. Colonic contents were pooled and suspended in anaerobic medium (Aobox) at a ratio of 1:20 (g/mL), the mixtures were centrifuged at 800 g (4°C) for 10 min, and then collected the supernatant for culture. Tissues were pooled and weighed, then homogenized with 5 mM phosphate buffer (pH = 7.4) at the ratio of 1:5 (g/ml). […] The intestinal bacterial cultures were incubated in an anaerobic chamber, while tissues or blood incubation systems were incubated at 37°C for 12 and 24 h, and then the incubation was terminated with three‐fold acetonitrile. After centrifugation at 12,000 g for 10 min, the supernatants were collected for HPLC‐FLD analysis.

A short description of series [9]: Solubility limit of PIP in the TDC enzyme assay. As to conditions: 37 °C, pH 5.5, aqueous buffer. In kind it is physicochemical. Here is the method: as §4
In series [10] the test system is TDC mRNA in E. faecalis ATCC29212. The series is described as follows: RT-qPCR of TDC gene expression in E. faecalis ATCC29212. Type of series: cell-based, Enterococcus faecalis. As to conditions: PIP 10 or 20 μg/mL, 24 h. As for the experimental part: as §6
Total RNA was extracted from the culture pellets generated in the experiment described above “Incubation of E. faecalis in vitro” using the RNAprep Pure Cell/Bacteria Kit (TIANGEN). A FastQuant RT Kit (with gDNase) (TIANGEN) was used to transcribe RNA to cDNA. After that, RT–qPCR was conducted using 2 × SuperReal PreMix Plus (TIANGEN) and performed on the CFX Connect™ Real‐Time System (Bio–Rad) following the amplification program: 95°C for 15 min, followed by 40 cycles of 95°C for 10 s, 52°C for 31 s, and 72°C for 30 s. The program ended with a final extension at 72°C for 10 min. The relative gene expression was calculated using the 2^−^ΔΔ^Ct method.

The test system of series [11] is tyrosine hydroxylase (TH). The series is described as follows: Western blot of tyrosine hydroxylase in lesioned substantia nigra. In kind it is in vivo, rat. As to conditions: 6-OHDA-lesioned rats, 6 weeks. Here is the method: as §2
The left substantia nigra (SN) of rat was lysed using non‐denaturing lysis buffer, and immunoblotting was performed following the reported protocol.[19] Protein homogenates were subjected to Western blot analysis using antibodies against tyrosine hydroxylase (TH, 1:1000, Sigma) and GAPDH (1:2000, Proteintech). The blots were visualized by a NcmECL Ultra Western blot diction kit (NCM Biotech), and densitometry was analyzed by using the Fusion FX Image system (Vilber Lourmat).
On the technique in general: Immunoblotting shows a protein as a band on a membrane.

The subject of series [12] is intestinal bacteria of SD rats. The series is described as follows: L-dopa conversion rate in rat intestinal bacteria (feces) culture in vitro. In kind it is cell-based. As to conditions: 24 h, anaerobic, vs L-dopa alone. Here is the method:
as §5, §7

Another series has as its system TDC in E. faecalis. The series is described as follows: ELISA of TDC specific activity in E. faecalis ATCC29212. As to conditions: PIP 10 or 20 μg/mL, 24 h. Type of series: cell-based, Enterococcus faecalis. Here is the method: as §6
The bacterial protein was extracted from the culture pellets generated as described above. After being washed with PBS three times, the bacterial pellets were re‐suspended in 400 μL PBS containing 2% ethanol and incubated in ice bath for 30 min. After centrifugation at 1000 g for 10 min, the sediments were collected and lysed using lysis buffer containing 100 μg/mL lysozyme, then centrifuged at 12,000 g for 20 min to collect the supernatants. After determining the protein concentration using the BCA kit (Beyotime), the assay of TDC level in E. faecalis was performed according to the Microorganism TDC Elisa kit (MM‐925239O2, MEIMIAN) guideline. Briefly, the extracted protein samples were added to the coated wells together with the balance solution and HRP conjugate reagent, then incubated at 37°C. […] After adding the stop solution to each well, the optical density was measured at the wavelength of 450 nm. The specific activity of TDC was calculated based on the standard curve. The results are expressed as U/mg protein.
Background: ELISA stands for enzyme-linked immunosorbent assay.

The subject of another series is MAO. Set-up: method as in PMID 32099971. As to conditions: reported; cited from earlier work.
The conditions of series [13]: PIP 10 and 20 mg/kg, rats; cited from earlier work.

≈ marks a conversion by molar mass, not a printed value.

For `N[C@@H](Cc1ccc(O)c(O)c1)C(=O)O` [L‐dopa, Levodopa], in the series with E. faecalis [1], the “abundance of E. faecalis in feces” value is “no significant effect”. For the same compound, the “abundance of E. faecalis in feces (qPCR)” value in the series with E. faecalis [2] was “did not show a notable effect”. Moreover, the “DA level in striatum (HPLC-ECD)” value with DA in rat striatum is on record as “significantly increased”. For the same compound, the “expression of TDC in feces” value with TDC [3] was “upregulation”. Besides, in the series with 6-OHDA-lesioned rats, the “movement speed in open field” value is “alleviate the bradykinesia” and the “total movement distance in open field” value is recorded as “alleviate the bradykinesia”. Besides, in the series with TDC [4], the “expression of TDC in feces (qPCR)” value is “further increased”.

In the case of `O=C(/C=C/C=C/c1ccc2c(c1)OCO2)N1CCCCC1` [PIP, piperine], the “specific activity of TDC in feces (ELISA)” value with TDC [5] is given as “significantly decrease”. Further, the “abundance of E. faecalis in feces (qPCR)” value in the series on E. faecalis [2] is “significantly reduce”. In addition, the “crossing of the blood-brain barrier” value in series [6] is recorded as “can cross”. Besides, in [6], the tissue distribution entry was “wide tissue distribution”. The “decrease in TDC activity” value in [7] stood at 20.95%. Also, the “decrease of CR of L-dopa” value in the series with E. faecalis ATCC29212 (PIP 10 μg/mL + L-dopa 0.3 mM) was 17.22%; with E. faecalis ATCC29212 (PIP 20 μg/mL + L-dopa 0.3 mM), 32.01%. Also, the “CR of L-dopa in brain homogenate” value in [8] (rat brain homogenate) is “no significant difference”. Further, in series [8] (rat small intestine homogenate), the “CR of L-dopa in small intestine homogenate” value is “no significant difference”. Besides, the “CR of L-dopa in blood” value in [8] (rat whole blood) is “no significant difference”. Besides, the concentration in solution in series [9] (solubility) came to 250 µM (≈ 71.3 µg/mL). In the series with TDC [4], the “expression of TDC in feces (qPCR)” value was “significantly suppressive effect”. Besides, the “gene expression of TDC in E. faecalis” value in [10] is reported as “reduced”. The “lesions of dopaminergic neurons (TH protein level in SN)” value in series [11] is “efficiently attenuate the lesions”. For the same compound, the “decrease of conversion rate (CR) of L-dopa” value is given as 17.02% in series [12] (PIP 10 μg/mL + L-dopa 0.3 mM) and 27.55% in series [12] (PIP 20 μg/mL + L-dopa 0.3 mM). The “specific activity of TDC in E. faecalis” value with TDC in E. faecalis is “reduced”. In the series with MAO, the MAO inhibition entry was “potential to inhibit MAO activity”. Moreover, the “safety of the dosages used” value in series [13] was “safe”.

As a reminder, the solubility is the dissolved amount per volume that the medium holds. A high value points to much dissolved substance.
